The test system of test [1] is rat neonatal cardiomyocytes. As to the kind of experiment: Hypoxia/serum-deprivation-induced cardiomyocyte apoptosis (cell death ELISA, DNA laddering). The test is classed as cell-based. On the procedure:
(§1) Cardiomyocytes (CM) were prepared from 1-2 day-old rats as described by Matsui et al. (Circulation 100:2373-9, 1999). All CM were incubated in RPMI-1640 containing 5% FBS and 10% horse serum. Neonatal CM grown in 60 mm dishes were infected with Ad.EGFP.β-gal (MOI 20), Ad.FADD-wt, or Ad.FADD-dn (MOI 20), for 24 hours prior to exposure to transient hypoxic conditions, lasting up to 24 hours. To expose CM to transient hypoxia conditions, CM media is changed to N2/CO2-saturated serum-free F10 and cells are placed in an airtight N2-saturated container at 37° C. for up to 24 hours. Hypoxia was confirmed by oxymetry measurements. To examine the role of FADD in inflammatory signaling, cultured neonatal rat CM were stimulated with TNF-α (50 ng/ml) for 4 hours. Nuclear and cytoplasmic extracts were prepared.
For determination of DNA laddering, cellular DNA is extracted with phenol:chloroform, treated with RNase, ^32P-labeled, and then visualized by electrophoresis in 1.8% agarose gel.
Histone-associated DNA fragments were quantified by cell death ELISA as described in the manufacturer's protocol. DNA fragmentation data were corrected for background and normalized to the result with normoxic cardiomyocytes.

Another test has as its system caspase-9. As to the kind of experiment: Caspase-9 activity (colorimetric assay) in cardiomyocytes. The test is classed as cell-based, rat. Particulars: pretreatment or over-expression. The protocol:
as §1
(§2) Optionally, apoptosis may also be measured by the protein or gene expression, or alternatively, by the activity of surrogate markers of apoptosis including, for example, caspase activity. Caspase-3, -8, and -9 activity may be examined by using the caspase colorimetric assay kit from R&D Systems according to the manufacturer's protocol. Briefly, cells are scraped, collected, washed with cold PBS, and lysed in cold lysis buffer. […] Release of the pNA cleavage product is quantitated in a microplate reader (Bio-Rad) at a wavelength of 405 nm.

A further test concerns NF-κB. As to the kind of experiment: TNF-α-induced NF-κB activation in neonatal rat cardiomyocytes (p65 translocation, IκB-α phosphorylation, EMSA). The test is classed as cell-based. Particulars: 50 μM. The protocol:
as §1, with “prepared. […]” for “prepared.”
Cells were harvested and nuclear extracts prepared as above. […] Nuclear proteins and oligonucleotide were then separated with native PAGE and detected by autoradiography.
Proteins were separated by SDS-PAGE performed under reducing conditions on 7.5%, 10%, and 12% separation gels with a 4% stacking gel. […] After washing, membranes were incubated with horseradish peroxidase-conjugated secondary antibody and immunoreactive bands detected by chemiluminescence.

Another test relates to caspase-8. As to the kind of experiment: Caspase-8 activity (colorimetric assay) in cardiomyocytes. The note with it: listed as zIETD-fink. The test is classed as cell-based, rat. The protocol: as §1, §2

SMILES strings stand for the structures. “Also recorded” adds a separate entry of the source. Where a SMILES comes first, the peptide text is derived from it. The star is where a group is joined. Cbz = O=C(OCc1ccccc1)*; CH2F = FC*

For the compound `COC(=O)C[C@H](NC(=O)[C@H](C)NC(=O)[C@@H](NC(=O)OCc1ccccc1)C(C)C)C(=O)CF` [zVAD-fmk] (Cbz-Val-Ala-Asp(OMe)-CH2F), in test [1] (concentrations ranging from 50 to 100 μM), the “hypoxia/SD-induced apoptosis (ELISA for histone-associated DNA fragmentation, DNA laddering)” value is reported as “inhibited”.

Consider `CC[C@H](C)[C@H](NC(=O)OCc1ccccc1)C(=O)N[C@@H](CCC(=O)OC)C(=O)N[C@H](C(=O)N[C@@H](CC(=O)OC)C(=O)CF)[C@@H](C)O` [zIETD-fmk] (Cbz-IE(OMe)TD(OMe)-CH2F), for which, in the test with caspase-9, the “hypoxia/SD-induced activation of caspase-9” value was “completely inhibited”. Further, in test [1] (4 h hypoxia/SD), the “CM apoptosis in response to hypoxia/SD” value is given as “completely inhibited”. Moreover, the “reversal of the FADD effect on NF-κB” value in the test on NF-κB is listed as “failed to reverse”. Besides, the “hypoxia/SD-induced caspase-8 activation” value in the test on caspase-8 is “completely inhibited; also recorded: effectively blocked”.

These data come from patent US20060148735A1, “Methods for treating, preventing, or reducing cardiac disorders using fadd inhibitors” (priority 2002, published 2006).
